Measured values: patent US10081606B2, “Heteroaryl compounds and uses thereof” (Celgene CAR LLC, priority 2010, dated 2018)
Like-named read-outs stand apart in the source and are kept apart here.

Key:
[1] = target: pEGFR in H1975 cells (Homo sapiens (Human), UniProt P00533, L858R/T790M); details: 500 nM for 1 hr, 0-24 hr
[2] = target: EGFR delE746-A750 (HCC827 cells) (Homo sapiens (Human), UniProt P00533, DEL746-750); experiment: EGFR signaling immunoblot (1 hr) in HCC827 cells; assay type: cell-based; details: signaling EC50, WT (A431) vs HCC827
Procedure: (§1) A431 human epidermoid carcinoma, H1975 human NSCLC and HCC827 human NSCLC adenocarcinoma cells were obtained from the American Type Culture Center (Manassas, Va.). A431 cells were grown in DMEM (Invitrogen, Carlsbad, Calif.) supplemented with 10% FBS (HyClone, South Logan, Utah) and 1% Penicillin-Streptomycin (P/S, Lonza, Walkersville, Md.).
(§2) All primary antibodies were obtained from Cell Signaling (Danvers, Mass.) and used at 1:1000. Secondary antibodies were used at 1:10,000. Goat anti-mouse IgG IRDye 800CW antibody was obtained from LiCor Biosciences (Lincoln, Nebr.) and goat anti-rabbit IgG Alexa Fluor 680 was obtained from Invitrogen.
(§3) Cells were grown in 12-well plates (Corning, Coring, N.Y.) to 90% confluence and then incubated in low-serum (0.1% FBS) media for 16-18 hr. […] A431 cells were then stimulated with 50 ng/ml EGF (Peprotech, Rocky Hill, N.J.) for 15 min. After treatment, cell monolayers were washed with cold PBS (Invitrogen) and immediately lysed by scrapping into 60 uL cold Cell Extraction Buffer (Invitrogen) supplemented with Complete Protease inhibitors (Roche, Indianapolis, Ind.) and PhosphoSTOP (Roche) phosphatase inhibitors.
(§4) Phospho-protein signals were quantitated using Odyssey Infrared Imaging (Li-Cor Biosciences).
Blots were normalized as indicated above. […]

[3] = target: T1, EGFR T790M/L858R (Homo sapiens (Human), UniProt P00533, L858R/T790M); details: for covalent modification of EGFR T790M/L858R: MS analysis
[4] = target: EGFR L858R/T790M (H1975 cells) (Homo sapiens (Human), UniProt P00533, L858R/T790M); experiment: EGFR signaling immunoblot (1 hr) in H1975 cells; assay type: cell-based; details: signaling EC50, WT (A431) vs H1975
Procedure: as §1, §2, §3, §4
Blots were normalized as indicated above. […] Normalized data was fitted using a sigmoidal curve analysis program (Graph Pad Prism version 5) with variable Hill slope to determine the EC50 values.

[5] = test system: A431 cells (WT EGFR); experiment: Cell proliferation (CellTiter Glo, 72 hr), A431; assay type: cell-based; details: Homo sapiens, A-431
Procedure: as §1
(§5) Growth inhibition (GI50) values were determined by Graph Pad Prism.

[6] = test system: HCC827 cells (EGFR delE746-A750); experiment: Cell proliferation (CellTiter Glo, 72 hr), HCC827; assay type: cell-based, human; details: for GI50: Homo sapiens; for Ratio WT/mutant: proliferation GI50, WT (A431) vs HCC827
Procedure: as §1, §5

[7] = test system: H1975 cells (EGFR L858R/T790M); experiment: Cell proliferation (CellTiter Glo, 72 hr), H1975; assay type: cell-based, human; details: for GI50: Homo sapiens, NCI-H1975; for Ratio WT/mutant: proliferation GI50, WT (A431) vs H1975
Procedure: as §1, §5

[8] = target: T1, EGFR T790M/L858R; experiment: Omnia biochemical assay, EGFR-T790M/L858R; details: biochemical IC50, WT EGFR vs T790M/L858R
Procedure: Kinase reactions were started with the addition of 45 μL of the ATP/Tyr-Sox peptide substrate mix and monitored every 71 seconds for 60 minutes at λex360/λem485 in a Synergy^4 plate reader from BioTek (Winooski, Vt.).

[9] = A431 cells, 72 hr, read-out: WT EGFR GI50
[10] = Table 2, A431 cells (WT EGFR), read-out: Comparative GI50, A431
[11] = HCC827 cells, 72 hr, read-out: HCC827 GI50
[12] = Table 2, HCC827 cells (delE746-A750), read-out: Comparative GI50, HCC827
[13] = H1975 cells, 72 hr, read-out: H1975 GI50
[14] = Table 2, H1975 cells (L858R/T790M), read-out: Comparative GI50, H1975

| SMILES | GI50 [5, 9] | GI50 [6, 11] | Ratio WT/mutant [6] | GI50 [7, 13] | Ratio WT/mutant [7] | further results |
| --- | --- | --- | --- | --- | --- | --- |
| C=CC(=O)Nc1cccc(Nc2nc(Nc3ccccc3OC)ncc2C(F)(F)F)c1 [Compound I-1, N-(3-(2-(2-methoxyphenylamino)-5-(trifluoromethyl)pyrimidin-4-ylamino)phenyl)acrylamide] | > 1000 nM | 10 to 100 nM | >20 | 100 to 500 nM | >10 | duration of action after washout (pEGFR inhibition) [1]: prolonged duration of action; Ratio WT/mutant [2]: >50; time to complete modification of EGFR T790M/L858R ([3]; 10-fold excess of compound): ≤ 30 min; mass shift as percent of compound mass ([3]; 10-fold excess of compound, MALDI): 113%; covalent modification of EGFR T790M/L858R [3]: completely modifies; Ratio WT/mutant [4]: >50; GI50 [5, 10]: > 1000 nM; GI50 [6, 12]: 10 to 100 nM; GI50 [7, 14]: 100 to 500 nM |
| C=CC(=O)Nc1cccc(Oc2nc(Nc3ccccc3OC)ncc2C(F)(F)F)c1 [Compound I-2, N-(3-(2-(2-methoxyphenylamino)-5-(trifluoromethyl)pyrimidin-4-yloxy)phenyl)acrylamide] | > 1000 nM | 100 to 500 nM |  | > 1000 nM |  | duration of action after washout (pEGFR inhibition) [1]: prolonged duration of action; covalent modification of EGFR T790M/L858R [3]: covalently modify |
| C=CC(=O)Nc1cccc(Nc2nc(Nc3ccc(OC)c(OC)c3OC)ncc2Cl)c1 [Compound I-4, N-(3-(5-chloro-2-(2,3,4-trimethoxyphenylamino)pyrimidin-4-ylamino)phenyl)acrylamide] | > 1000 nM | 100 to 500 nM |  | 100 to 500 nM |  |  |
| C=CC(=O)Nc1cccc(Nc2nc(Nc3ccc(OC)c(OC)c3OC)ncc2Br)c1 [Compound I-5, N-(3-(5-bromo-2-(2,3,4-trimethoxyphenylamino)pyrimidin-4-ylamino)phenyl)acrylamide] | > 1000 nM | 100 to 500 nM | >20 | > 1000 nM | >1 | Ratio WT/mutant [4]: >50 |
| C=CC(=O)Nc1cccc(Oc2nc(Nc3cccc(OC)c3OC)ncc2Br)c1 [Compound I-6, N-(3-(5-bromo-2-(2,3-dimethoxyphenylamino)pyrimidin-4-yloxy)phenyl)acrylamide] | > 1000 nM | 500 to 1000 nM | >1 | 500 to 1000 nM | >1 |  |
| C=CC(=O)Nc1cccc(Oc2nc(Nc3ccc(OC)c(OC)c3OC)ncc2Br)c1 [Compound I-8, N-(3-(5-bromo-2-(2,3,4-trimethoxyphenylamino)pyrimidin-4-yloxy)phenyl)acrylamide] | > 1000 nM | 100 to 500 nM |  | > 1000 nM |  |  |
| C=CC(=O)Nc1cccc(Oc2nc(Nc3ccc(OC)cc3OC)ncc2C(F)(F)F)c1 [Compound I-9, N-(3-(2-(2,4-dimethoxyphenylamino)-5-(trifluoromethyl)pyrimidin-4-yloxy)phenyl)acrylamide] | > 1000 nM | 100 to 500 nM |  | 100 to 500 nM |  |  |
| C=CC(=O)Nc1cccc(Oc2nc(Nc3ccc(OC)c(OC)c3OC)ncc2C(F)(F)F)c1 [Compound I-10, N-(3-(5-(trifluoromethyl)-2-(2,3,4-trimethoxyphenylamino)pyrimidin-4-yloxy)phenyl)acrylamide] | > 1000 nM | 100 to 500 nM | >10 | 100 to 500 nM | >10 | Ratio WT/mutant [4]: >50 |
| C=CC(=O)Nc1cccc(Nc2nc(Nc3ccc(OC)c(OC)c3OC)ncc2C(F)(F)F)c1 [Compound I-11, N-(3-(5-(trifluoromethyl)-2-(2,3,4-trimethoxyphenylamino)pyrimidin-4-ylamino)phenyl)acrylamide] | > 1000 nM | 10 to 100 nM | >40 | 100 to 500 nM | >10 | Ratio WT/mutant [2]: >5; Ratio WT/mutant [4]: >50; GI50 [5, 10]: > 1000 nM; GI50 [6, 12]: 10 to 100 nM; GI50 [7, 14]: 100 to 500 nM |
| C=CC(=O)Nc1cccc(Oc2nc(Nc3ccc(OC)cc3OC)ncc2Br)c1 [Compound I-13, N-(3-(5-bromo-2-(2,4-dimethoxyphenylamino)pyrimidin-4-yloxy)phenyl)acrylamide] | > 1000 nM | 100 to 500 nM |  | 500 to 1000 nM |  |  |
| C=CC(=O)Nc1cccc(Nc2nc(Nc3cccc(OC)c3OC)ncc2Br)c1 [Compound I-14, N-(3-(5-bromo-2-(2,3-dimethoxyphenylamino)pyrimidin-4-ylamino)phenyl)acrylamide] |  |  |  |  |  | Ratio WT/mutant [8]: >50 |
| C=CC(=O)Nc1cccc(Oc2nc(Nc3ccc(OC)cc3OC)ncc2Cl)c1 [Compound I-15, N-(3-(5-chloro-2-(2,4-dimethoxyphenylamino)pyrimidin-4-yloxy)phenyl)acrylamide] | > 1000 nM | 100 to 500 nM |  | > 1000 nM |  |  |
| C=CC(=O)Nc1cccc(Nc2nc(Nc3cccc(OC)c3OC)ncc2C(F)(F)F)c1 [Compound I-16, N-(3-(2-(2,3-dimethoxyphenylamino)-5-(trifluoromethyl)pyrimidin-4-ylamino)phenyl)acrylamide] | > 1000 nM | 500 to 1000 nM |  | > 1000 nM |  |  |
| C=CC(=O)Nc1cccc(Oc2nc(Nc3cccc(OC)c3OC)ncc2Cl)c1 [Compound I-17, N-(3-(5-chloro-2-(2,3-dimethoxyphenylamino)pyrimidin-4-yloxy)phenyl)acrylamide] |  |  |  |  |  | Ratio WT/mutant [8]: >35 |
| C=CC(=O)Nc1cccc(Nc2nc(Nc3ccccc3OC)ncc2Cl)c1 [Compound I-18, N-(3-(5-chloro-2-(2-methoxyphenylamino)pyrimidin-4-ylamino)phenyl)acrylamide] | > 1000 nM | 500 to 1000 nM | >5 | > 1000 nM | >1 |  |
| C=CC(=O)Nc1cccc(Oc2nc(Nc3ccccc3OC)ncc2F)c1 [Compound I-19, N-(3-(5-fluoro-2-(2-methoxyphenylamino)pyrimidin-4-yloxy)phenyl)acrylamide] | > 1000 nM | 100 to 500 nM | >10 | > 1000 nM | >1 |  |
| C=CC(=O)Nc1cccc(Nc2nc(Nc3ccc(OC)cc3OC)ncc2Br)c1 [Compound I-20, N-(3-(5-bromo-2-(2,4-dimethoxyphenylamino)pyrimidin-4-ylamino)phenyl)acrylamide] | > 1000 nM | 100 to 500 nM | >10 | > 1000 nM | >1 |  |
| C=CC(=O)Nc1cccc(Nc2nc(Nc3ccc(OC)cc3OC)ncc2Cl)c1 [Compound I-21, N-(3-(5-chloro-2-(2,4-dimethoxyphenylamino)pyrimidin-4-ylamino)phenyl)acrylamide] | > 1000 nM | 500 to 1000 nM | >5 | > 1000 nM | >1 | Ratio WT/mutant [4]: >5 |
| C=CC(=O)Nc1cccc(Nc2nc(Nc3ccccc3OC)ncc2Br)c1 [Compound I-22, N-(3-(5-bromo-2-(2-methoxyphenylamino)pyrimidin-4-ylamino)phenyl)acrylamide] | > 1000 nM | 500 to 1000 nM |  | 500 to 1000 nM |  |  |
| C=CC(=O)Nc1cccc(Oc2nc(Nc3cccc(OC)c3OC)ncc2C(F)(F)F)c1 [Compound I-23, N-(3-(2-(2,3-dimethoxyphenylamino)-5-(trifluoromethyl)pyrimidin-4-yloxy)phenyl)acrylamide] | > 1000 nM | > 1000 nM |  | > 1000 nM |  |  |
